According to US12110311B2, “Cyclic deoxyribonucleotide compounds” (NUCORION PHARMACEUTICALS, INC., priority 2019, dated 2024):
Read-outs that look alike come from different tables or passages of the source.

Key:
[1] = Tissue distribution following oral administration in rats (prodrug and metabolite levels in liver and blood); assay type: in vivo; settings: rat, 1 hour after oral administration, 5 mg/kg
Description: The liver specificity of the disclosed compounds is compared relative to a corresponding active compound in the liver and other organs that could be targets of toxicity.
Reference compounds and the cyclic deoxyribonucleotide compounds are administered at 5-50 mg/kg to fasted rats by oral gavage. Plasma concentrations of the metabolites, and parent compounds in circulation and in the hepatic portal vein are determined by HPLC-UV, and the liver, small intestine, and other organ concentrations are measured by LC-MS using the standard chromatography method.

[2] = in vivo; cited from earlier work
[3] = prodrug level in blood, read-out: Drug blood
[4] = prodrug level in liver, read-out: Drug liver

Q: For `CC(C)OC(=O)c1ccccc1COP1(=O)OC[C@H]2O[C@@H](n3cc(F)c(=O)[nH]c3=O)C[C@@H]2O1` (stereo partly drawn) [Compound 124, Isopropyl 2-((((4aR,6R,7aS)-6-(5-fluoro-2,4-dioxo-3,4-dihydropyrimidin-1(2H)-yl)-2-oxidotetrahydro-4H-furo[3,2-d][1,3,2]dioxaphosphinin-2-yl)oxy)methyl)benzoate], which concentration at 1 h [1, 3] is on record?
A: Its concentration at 1 h is 11 ng/mL.

Q: And the concentration at 1 h [1, 4]?
A: The concentration at 1 h was 668 ng/g.

Q: Which biological half-life [2] does the source give for `O=c1[nH]cc(F)c(=O)[nH]1` [5-Fluorouracil] here?
A: Its biological half-life is about 16 minutes.

Q: For `CCCOC(=O)c1ccccc1COP1(=O)OC[C@H]2O[C@@H](n3cc(F)c(=O)[nH]c3=O)C[C@@H]2O1` (stereo partly drawn) [Compound 126, Propyl 2-((((4aR,6R,7aS)-6-(5-fluoro-2,4-dioxo-3,4-dihydropyrimidin-1(2H)-yl)-2-oxidotetrahydro-4H-furo[3,2-d][1,3,2]dioxaphosphinin-2-yl)oxy)methyl)benzoate], which concentration at 1 h [1, 3] is on record?
A: The concentration at 1 h was 2.7 ng/mL.

Q: And the concentration at 1 h [1, 4]?
A: The concentration at 1 h was 9.3 ng/g.
